Measurements from patent US20210252104A1, “ANTIBACTERIAL PEPTIDE MONOMERS AND COMBINATIONS FOR CO-THERAPY” (ARREVUS, INC., priority 2018, published 2021).
Converted amounts (≈) assume the structure as drawn. Like-named read-outs stand apart in the source and are kept apart here. Non-standard residues stand in square brackets, D forms with d. Residues, ends and D or L forms follow the SMILES beside them. Ac6c = NC1(C(=O)O)CCCCC1

Experiments:
K. pneumoniae K97/09 [1] = assay: microbe, parasite or virus in culture; details: Klebsiella pneumoniae
K. pneumoniae K97/09 [2] = assay: FIC checkerboard assay (combinations); assay type: cell-based; details: K. pneumoniae K97/09
[3] = system: Acinetobacter baumannii BAA-1805 (MACI); assay: microbe, parasite or virus in culture; details: BAA1805, read-out: MACI MIC (mg/L)
[4] = system: A. baumannii strain (BAA-1605); assay: microbe, parasite or virus in culture; assay type: cell-based; details: Acinetobacter baumannii, BAA1605, read-out: MIC
K. pneumoniae K97/09 [5] = details: K. pneumoniae K97/09; no unit in table (mg/L)
E. coli 5770 = assay: Mice challenged ip with E. coli 5770, blood bacterial counts
[6] = reported value; cited from earlier work
[7] = target: 70 kDa bacterial heat shock protein DnaK (Escherichia coli, UniProt P0A6Y8); assay: Binding to DnaK
Text: The bacterial target of peptide monomers described herein, such as Chex1-Arg20, is believed to be the C-terminal D-E helix of the 70 kDa bacterial heat shock protein DnaK (Otvos et al., J. Med. Chem. 48:5349 (2005); Kragol et al., Biochemistry 40:3016 (2001); Bikker et al., Chem. Biol. Drug Des. 68:148 (2006)). DnaK is a 650-residue protein comprised of 3 distinct domains: (1) N-terminal nucleotide binding domain, (2) C-terminal substrate binding domain and (3) flexible linking domain. […] Peptide monomers described herein bind to DnaK from multiple bacterial species. The MPC of Chex1-Arg20 is reported to be >100 μM, supporting the conclusion that the antibacterial efficacy is […] non-membranolytic. Because DnaK is present in all bacteria, peptide monomers described herein are effective against a wide variety of bacteria and may be effective in combination with all classes of antibiotics.

[8] = Post-antibiotic effect (PAE)
Text: Post-antibiotic Effect (PAE).

[9] = system: Burkholderia pseudomallei 1026b; assay type: in vivo
A. baumannii HUMC1 = assay: Bacteremia synergy assay 3 (murine bacteremia model); assay type: in vivo
[10] = Immunogenicity, antibody production by ELISA; assay type: in vivo; details: mice; 5 mg/kg sc twice in a 3-wk interval; blood 4 weeks after second immunization

70 kDa bacterial heat shock protein DnaK, sequence (P0A6Y8 whole entry, the tested form may be a part): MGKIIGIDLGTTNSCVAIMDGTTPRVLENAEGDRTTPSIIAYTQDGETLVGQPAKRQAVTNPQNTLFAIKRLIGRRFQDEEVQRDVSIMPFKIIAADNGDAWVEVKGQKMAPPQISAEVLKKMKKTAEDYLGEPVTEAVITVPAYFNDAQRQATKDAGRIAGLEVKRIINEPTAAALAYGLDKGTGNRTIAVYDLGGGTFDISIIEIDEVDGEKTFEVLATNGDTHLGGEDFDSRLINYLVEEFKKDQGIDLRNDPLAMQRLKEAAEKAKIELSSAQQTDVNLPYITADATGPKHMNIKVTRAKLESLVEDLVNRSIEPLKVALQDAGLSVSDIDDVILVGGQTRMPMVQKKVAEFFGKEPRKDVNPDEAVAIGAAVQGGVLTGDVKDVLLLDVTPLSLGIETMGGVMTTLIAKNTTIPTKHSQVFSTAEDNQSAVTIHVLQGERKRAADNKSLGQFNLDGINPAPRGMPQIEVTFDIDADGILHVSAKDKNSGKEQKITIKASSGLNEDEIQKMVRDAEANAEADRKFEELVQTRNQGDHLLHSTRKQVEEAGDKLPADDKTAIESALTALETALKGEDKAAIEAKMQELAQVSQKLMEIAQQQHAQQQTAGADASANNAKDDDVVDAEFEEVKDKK

For `C[C@@H](O)[C@H]1C(=O)N2C(C(=O)O)=C(SCCN=CN)C[C@H]12` [imipenem], the MIC (K. pneumoniae K97/09 [1]; K97/09) was over 256 mg/L, the MIC (K. pneumoniae K97/09 [1]; K97/09, read-out: KPC MIC (mg/L)) was over 256 mg/L and the ΣFIC (K. pneumoniae K97/09 [2]; antibiotic + ARV-1501) was 0.5. The “MIC of antibiotic + ARV-1501” value (K. pneumoniae K97/09 [2]; antibiotic in combination with ARV-1501, no unit in table) was 4, the MIC [3] was 64 mg/L (≈ 214 µM) and the MIC [4] was 64 µg/mL (≈ 214 µM). The “MIC of antibiotic alone” value (K. pneumoniae K97/09 [5]) was over 256.
With `CC(C)C[C@H](NC(=O)[C@H](Cc1ccc(O)cc1)NC(=O)[C@@H]1CCCN1C(=O)[C@H](CCCNC(=N)N)NC(=O)[C@@H]1CCCN1C(=O)[C@H](CCCCN)NC(=O)[C@H](CC(=O)O)NC(=O)[C@@H]1CCCN1C(=O)[C@H](CCCNC(=N)N)NC(=O)C1(N)CCCCC1)C(=O)N1CCC[C@H]1C(=O)N[C@@H](CCCNC(=N)N)C(=O)N1CCC[C@H]1C(=O)N[C@@H](CCCNC(=N)N)C(=O)N1CCC[C@H]1C(=O)N1CCC[C@H]1C(=O)N[C@@H](CCCNC(=N)N)C(=O)N1CCC[C@H]1C(=O)N[C@H](C(=O)N[C@@H](CCCNC(=N)N)C(N)=O)C(C)C` [Example 1, Chex-RPDKPRPYLPRPRPPRPVR-NH2] (H-[Ac6c]RPDKPRPYLPRPRPPRPVR-NH2) the “Bacterial counts in blood” value (E. coli 5770; 2.5 mg/kg ip, 4 h after challenge (before first dose)) was 3.68 × 10^7 CFU/mL, the “Bacterial counts in blood” value (E. coli 5770; 2.5 mg/kg ip, 8 h after challenge) was 4.2 × 10^6 CFU/mL and the “Bacterial counts in blood” value (E. coli 5770; 2.5 mg/kg ip, 12 h after challenge) was <1.7 × 10^6 CFU/mL. The “Bacterial counts in blood” value (E. coli 5770; 2.5 mg/kg ip, 16 h after challenge) was <1 × 10^6 CFU/mL, the “Bacterial counts in blood” value (E. coli 5770; 2.5 mg/kg ip, 24 h after challenge) was <4.8 × 10^5 CFU/mL and the “Improvement of blood bacterial load” value (E. coli 5770; 2.5 mg/kg ip, by 24 h) was “not statistically significant”. For the same molecule, the “Reduction of blood bacterial load” value (E. coli 5770; 2.5 mg/kg ip, during the 12-h treatment period) was 1.5-2 log 10 units, the “Reduction of blood bacterial counts after inoculation” value (E. coli 5770; 5 mg/kg ip) was over 2 log 10 CFU/mL and the “Bacterial counts in blood” value (E. coli 5770; 5 mg/kg ip, 4 h after challenge (before first dose)) was 3.68 × 10^7 CFU/mL. For the same molecule, the “Bacterial counts in blood” value (E. coli 5770; 5 mg/kg ip, 8 h after challenge) was 4.3 × 10^5 CFU/mL, the “Bacterial counts in blood” value (E. coli 5770; 5 mg/kg ip, 12 h after challenge) was 1.1 × 10^6 CFU/mL and the “Bacterial counts in blood” value (E. coli 5770; 5 mg/kg ip, 16 h after challenge) was <1.1 × 10^5 CFU/mL. For the same molecule, the “Bacterial counts in blood” value (E. coli 5770; 5 mg/kg ip, 24 h after challenge) was <1 × 10^3 CFU/mL, the Blood sterilization (E. coli 5770; 5 mg/kg ip, at 24 h) was “complete sterilization of the blood” and the “Time after the last peptide treatment by which the blood was sterilized” value (E. coli 5770; 10 mg/kg ip) was at most 4 h. For the same molecule, the “Bacterial counts in blood” value (E. coli 5770; 10 mg/kg ip, 4 h after challenge (before first dose)) was 3.68 × 10^7 CFU/mL, the “Bacterial counts in blood” value (E. coli 5770; 10 mg/kg ip, 8 h after challenge) was 2.4 × 10^5 CFU/mL and the “Bacterial counts in blood” value (E. coli 5770; 10 mg/kg ip, 12 h after challenge) was 2.9 × 10^5 CFU/mL. The “Bacterial counts in blood” value (E. coli 5770; 10 mg/kg ip, 16 h after challenge) was <1 × 10^3 CFU/mL, the “Bacterial counts in blood” value (E. coli 5770; 10 mg/kg ip, 24 h after challenge) was <1 × 10^3 CFU/mL and the MPC [6] was over 100 µM. The Kd [7] was 410 nM, the MIC (E. coli UNT167-1) was 32 mg/L (≈ 12.9 µM) and the “Post-antibiotic effect (PAE)” value [8] was 14 h. For the same molecule, the MIC (E. Coli ATCC 29222) was 2.6 ± 0.7 µM (≈ 6.44 µg/mL), the “Median survival (days post-challenge)” value ([9]; Chex1-Arg20 5 mg/kg im monotherapy) was 4 days post-challenge and the Rescue of mice ([9]; Chex1-Arg20 monotherapy) was “failed to rescue any mouse”. For the same molecule, the “B. pseudomallei load in survivals (CFU/spleen)” value ([9]; in vivo, 5 mg/kg) was “No survival”, the Number of deaths ([9]; in vivo, 5 mg/kg) was 10 and the “Complete response (negative blood culture), test animals” value (A. baumannii HUMC1; ARV-1502 5.0 mg/kg treatment group) was 100%. For the same molecule, the “Negative blood culture of A. baumannii” value (A. baumannii HUMC1; ARV-1502 1.25-5.0 mg/kg treatment groups) was “dose-dependent negative blood culture”, the MIC (K. Pneumoniae ATCC 13883) was 0.8 ± 0.0 µM (≈ 1.98 µg/mL) and the MIC (P. aeruginosa ATCC 47085) was 56.3 ± 4.5 µM (≈ 139 µg/mL). The “Antibody production by ELISA” value [10] was “Neither IgG1, IgG2a, IgG3, IgM, nor IgE are observed” and the MIC (A. Baumannii ATCC 19606) was over 100 µM.
